Data reported in article PMC5085647.

How the values were obtained:
[1] = biological target: T1, porcine liver APEH (Sus scrofa, UniProt P19205); test: APEH inhibition in cell-free assay (Ac-Ala-pNA substrate); format: biochemical; settings: Figure S1A
T1 sequence (P19205 1-732): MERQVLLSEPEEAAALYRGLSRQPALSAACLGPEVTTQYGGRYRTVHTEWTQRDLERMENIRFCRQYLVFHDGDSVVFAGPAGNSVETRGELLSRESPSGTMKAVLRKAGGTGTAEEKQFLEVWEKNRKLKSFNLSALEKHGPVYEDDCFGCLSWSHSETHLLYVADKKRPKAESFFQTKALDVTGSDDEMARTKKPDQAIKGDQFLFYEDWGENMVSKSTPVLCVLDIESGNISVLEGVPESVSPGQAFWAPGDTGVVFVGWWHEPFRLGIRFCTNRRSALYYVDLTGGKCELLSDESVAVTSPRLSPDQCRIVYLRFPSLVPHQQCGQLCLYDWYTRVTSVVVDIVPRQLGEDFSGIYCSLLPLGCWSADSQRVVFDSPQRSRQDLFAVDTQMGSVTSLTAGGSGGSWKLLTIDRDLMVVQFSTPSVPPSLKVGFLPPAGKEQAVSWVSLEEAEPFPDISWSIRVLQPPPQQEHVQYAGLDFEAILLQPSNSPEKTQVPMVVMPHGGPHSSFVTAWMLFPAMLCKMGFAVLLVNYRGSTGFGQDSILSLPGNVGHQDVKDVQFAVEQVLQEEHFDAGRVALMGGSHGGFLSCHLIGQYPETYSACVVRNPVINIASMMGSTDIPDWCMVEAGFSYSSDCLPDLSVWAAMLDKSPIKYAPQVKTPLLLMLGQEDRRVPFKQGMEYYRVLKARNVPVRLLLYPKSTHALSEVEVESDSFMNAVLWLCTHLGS
Experimental: APEH activity was measured spectrophotometrically using the chromogenic substrate Ac-Ala-pNA (Bachem, Laufelfingen, Switzerland). […] APEH activity was expressed in IU. […] Mixtures were pre-incubated for 30 min at 37 °C before addition of the substrate, and the enzymatic activities were followed as described above. […] Enzymes incubated without inhibitors were used as controls.

[2] = tested on: U2OS cells; test: LDH release cytotoxicity assay; format: cell-based, human; settings: BTZ 10 nM, positive control, n = 3
Experimental: The release of LDH (Lactate dehydrogenase) was used as a marker for cell toxicity. After treatment with 50 and 100 µM SsCEI 4 for 24 h, cleared supernatants were incubated with reaction buffer for 30 min at room temperature according to the manufacturer instructions (ab65393, LDH-Cytotoxicity Assay Kit II). Absorbance was measured at 490 nm and the cytotoxicity percentage was calculated as: [(Absorbancetest sample − Absorbancelow control)/(Absorbancehigh control − Absorbancelow control) × 100].

[3] = tested on: Beclin-1 and LC3-II in U2OS cells; test: Autophagy markers Beclin-1 and LC3-I/LC3-II (Western blot); format: cell-based, human; settings: Quercetin for 2 h and overnight
Experimental: For Western blotting analysis, protein aliquots (30 µg/lane) were run on SDS-PAGE (8% or 12.5%) and then electroblotted onto PVDF membranes (ImmobilonTM, Millipore, Milan, Italy). Membranes were next incubated with the specific primary antibodies (1 h at room temperature) and then incubated with the appropriate dilution of secondary antibodies (1 h at room temperature). Immunocomplexes were visualized by enhanced chemiluminescence and autoradiography according to the manufacturer protocol (Santa Cruz Biotechnology) and quantified by densitometric analysis with Image J software (NIH, Bethesda, […], USA), using the β-actin and Vinculin levels as loading control for normalization.
Figure S3. […] (A, left panel)
U2OS cells were treated with DMSO (C) or SsCEI 4 (50 and 100 µM) for 72 h. Then, cell lysates were […]
harvested and subjected to immunoblotting for Beclin-1; (A, right panel) Results of densitometry of […]
Beclin-1 bands are expressed as the mean of relationships between densitometries of Beclin-1 and […]
β-actin bands, used as loading control; (B) U2OS cells were treated with DMSO (C) or SsCEI 4 (50 […]
and 100 µM) for 72 h, and cell lysates were used to analyze LC3-II conversion by immunoblotting […]
using the specific antibody against LC3, which is able to recognize both the upper LC3-I band and […]
the lower LC3-II. […]

Row | Structure (SMILES) | Effect toward APEH activity [1] | Cytotoxicity (LDH release in culture medium) [2] | Beclin-1 and LC3-II levels (autophagy), positive control [3]
1 | CC(C)C[C@H](NC(=O)[C@H](Cc1ccccc1)NC(=O)c1cnccn1)B(O)O [Bortezomib] | completely ineffective | exceeding 200% | –
2 | O=c1c(O)c(-c2ccc(O)c(O)c2)oc2cc(O)cc(O)c12 [Quercetin] | – | – | strongly induced
